Measurements: patent US10335382B2, “Use of hydrogen sulfide synthesis inhibitors for cancer therapy” (THE BOARD OF REGENTS OF THE UNIVERSITY OF TEXAS SYSTEM, priority 2013, dated 2019)
Entries after “also recorded” stand apart in the source; their conditions may differ.

Legend:
[1] = biological target: T1, CBS (Homo sapiens, UniProt P35520); assay: CBS inhibitor screen: H2S production by recombinant CBS (methylene blue assay); format: biochemical; design: These studies used full-length human CBS enzyme; made in house; host or cells: E. coli BL21 (DE3) Codon Plus; conditions: 100 μM; homocysteine-induced H2S production; LOPAC library screen; read-out: Inhibition of CBS activity at 100 μM
T1 sequence (P35520 1-551): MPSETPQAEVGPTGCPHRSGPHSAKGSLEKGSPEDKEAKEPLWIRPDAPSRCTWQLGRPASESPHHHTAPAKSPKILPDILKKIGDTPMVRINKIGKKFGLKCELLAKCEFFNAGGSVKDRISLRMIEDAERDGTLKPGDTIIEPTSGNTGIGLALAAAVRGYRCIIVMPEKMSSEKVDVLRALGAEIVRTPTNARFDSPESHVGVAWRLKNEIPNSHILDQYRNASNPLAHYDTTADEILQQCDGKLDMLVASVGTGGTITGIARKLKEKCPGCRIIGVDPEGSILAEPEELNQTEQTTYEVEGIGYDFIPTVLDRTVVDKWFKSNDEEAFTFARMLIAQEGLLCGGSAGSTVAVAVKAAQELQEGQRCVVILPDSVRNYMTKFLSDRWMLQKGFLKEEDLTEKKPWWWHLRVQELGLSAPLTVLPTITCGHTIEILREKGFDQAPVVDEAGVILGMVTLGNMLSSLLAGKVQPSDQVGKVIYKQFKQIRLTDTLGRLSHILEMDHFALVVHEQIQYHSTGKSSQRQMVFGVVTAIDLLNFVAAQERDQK
Text: Studies have been performed characterizing, in detail, the specificity and selectivity of all known H2S biosynthesis inhibitors, using recombinant CBS and CSE enzymes. These studies used full-length human CBS enzyme, and a colorimetric ‘capture’ reaction of the H2S produced by these enzymes, an assay generally known as the ‘methylene blue assay’. This assay is used in a 96-well plate format, as well as in combination with a second screening method based on a fluorescent dye.
Human recombinant CBS is expressed as described (Asimakopoulou et al, (2013) Br J Pharmacol. 169(4):922-32). A library of pharmacologically active compounds (e.g., LOPAC library, Sigma; 1240 compounds) is tested on homocysteine-induced H2S production. In certain aspects the assay is in a 96-well format. In certain aspects H2S production is measured by the methylene blue assay (Asimakopoulou et al., (2013) Br J Pharmacol. 169(4):922-32).
Plasmids, bacterial strains and media. E. coli BL21 (DE3) Codon Plus is used as a host strain to express recombinant human CSE or CBS. CSE cDNA was cloned into pGEX-4T3 and CBS into pGEX-Kg to create N-terminal GSH-S-transferase (GST) fusion proteins. The expression vectors were transformed and plated on LB-agar plates, supplemented with ampicillin (100 μg/mL).
The expression and purification of CSE and CBS is performed as described previously with modifications (Frank et al., (2008) Arch Biochem Biophys 470:64-72; Huang et al., (2009) J Mol Biol 396: 708-18). Briefly, BL21(DE3) Codon Plus cells containing either the expression vector pGEX-4T3/GST-CSE or pGEX-Kg/GST-CBS are grown at 37° C. and 180 r.p.m. in LB broth medium containing 100 μg/mL ampicillin to an absorption of 0.6-0.8 at 600 nm. In addition, 0.3 mM d-ALA is added to the culture containing pGEX-Kg/GST-CBS. Then protein expression is induced by addition of 0.1 mM IPTG. Cells containing pGEX-4T-3/GST-CSE are incubated overnight at 18° C., whereas cells containing pGEXKg/GST-CBS are incubated overnight at 30° C. Culture is then centrifuged at 4° C. and 5000×g for 10 min and the cell pellet was resuspended in PBS (140 mM NaCl, 2.7 mM KCl, 10 mM Na2HPO4, 1.8 mM KH2PO4, pH 7.8) and stored at −20° C. overnight. After thawing, the suspension is sonicated in lysis buffer containing PBS and protease inhibitor cocktail for GST-CSE and PBS, 5 mM DTT, 1% Triton X-100, […] and protease inhibitor cocktail for GST-CBS. After centrifugation at 4° C. for 30 min, the soluble fraction containing either the GST-CSE or the GST-CBS recombinant protein is loaded onto a GSTrap FF 1 mL affinity column that has been equilibrated with binding buffer PBS. The column was consecutively washed with five column volumes of binding buffer. Proteins attached to the column, including GST-CSE or GST-CBS recombinant proteins, are eluted with five column volumes of elution buffer (50 mM Tris-HCl, 10 mM reduced GSH, pH 8.0) and then dialysed and concentrated in 10 mM sodium phosphate buffer pH 8.2 and DTT 1 mM. The purity of the recombinant enzymes was checked by SDS-PAGE on 12% polyacrylamide gels after staining of protein bands with Coomassie Blue R-250. Protein concentration was determined using the DC protein assay kit.
H2S determination is performed according to Stipanuk and Beck ((1982) Biochem J 206:267-77) with some modifications. In the case of the CSE enzyme, an assay consist of a 100 μL reaction mixture containing 5 μg of the purified CSE enzyme, 0.01 mM PLP, 1 mM L-cys, and 50 mM sodium phosphate buffer pH 8.2. For the CBS enzyme, the reaction mixture contains the same as for the CSE plus 1 mM homocysteine. The inhibitors can be added to the reaction before L-cys is added to the solution. Reactions are initiated by transferring the reaction solutions from ice to a 37° C. shaking water bath. After incubation at 37° C. the reaction is terminated by adding 1% ZnAc to trap H2S followed by 10% TCA to precipitate proteins. […]

[2] = test system: HCT116 colon cancer cell; conditions: cell-based assays (Szabo et al. 2013); cited from earlier work
[3] = test system: peritumor microvessel blood flow; assay: Tumor microvascular blood flow (laser Doppler); format: in vivo, mice; conditions: intratumoral injection; AOAA 9 mg/kg, L-cysteine 1 mg/kg
Method: FIG. 6. L-Cysteine increases, while AOAA reduces microvessel blood flow in tumor bearing mice. Tumor bearing mice were anesthetized by i.p. injection of ketamine-xylazine and a laser Doppler (PeriFlux system 5000) was placed on top of the tumor for microvessel blood flow measurements. After a stabilization period, L-Cys or AOAA were injected subcutaneously in proximity of the tumor. […] Data represent mean±SEM of n=6 determinations.
Skin microvascular blood flow was measured using a PeriFlux 5000 laser-Doppler flowmeter. Mice bearing PTX were anesthetized by ketamine-xylazine (i.p.). The laser-Doppler probe was placed on top of the tumors and a stable basal signal was recorded. Changes in the subcutaneous microcirculatory perfusion were detected following intratumoral injections of either L-cysteine (1 mg/kg) or AOAA (9 mg/kg).

NOCC(=O)O [AOAA, aminooxyacetic acid]
inhibition at 100 µM [1]: 98%
concentrations at which antiproliferative effects and effects on cellular energetics manifest in cell-based assays [2]: higher (millimolar) concentrations
peritumor / skin microvessel blood flow [3]: significantly reduced; also recorded: marked decrease
